Data from ChEMBL document CHEMBL3832088, “DailyMed|setid=abbf31eb-9966-411a-9c5d-91025ff7a782 | ZARAH- drospirenone and ethinyl estradiol | Watson Pharma, Inc”.
Values joined by “and” are separate entries in the source; they are usually repeats but may differ in a detail not shown here. Identical values can stand only once.

Assays:
[1] = (§1) Evaluation of pharmacokinetic parameters for Drosporine following multiple co-administration of 3 mg Drosporine tablets and […] ethinyl estradiol to 12 healthy female subjects.; assay type: ADME, organism-based; design: dose 3 mg, route oral; conditions: human, in vivo, dose 3 mg, dosed compound id 30, dosed compound name DROSPIRENONE, gender female, regimen Once daily, route oral, study dosing duration 21 days, tissue Serum
[2] = tested on: Homo sapiens; assay: as §1; assay type: ADME, organism-based; design: dose 3 mg, route oral; conditions: in vivo, po, dosed compound id 30, dosed compound name DROSPIRENONE, gender female, regimen Once daily, study dosing duration 21 days, tissue Serum
[3] = dose 3 mg, sampling time1 21 day

Tmax ([1]; sampling time1 1 day): 1.7 h
half-life ([1]; sampling time1 21 day): 32.5 h
Tmax [2, 3]: 1.8 h and 1.6 h
t1/2 [2, 3]: 31.4 h
AUC(0-24) ([2]; sampling time1 1 day): 288 ng·h/mL
Cmax ([2]; sampling time1 1 day): 36.9 ng/mL
AUC(0-24) ([2]; sampling time1 21 day): 957 ng.hr/mL [middle of 4 runs]
Cmax ([2]; sampling time1 21 day): 84.2 ng/mL [middle of 4 runs]
SMILES: C[C@]12CCC(=O)C=C1[C@@H]1C[C@@H]1[C@H]1[C@@H]3[C@@H]4C[C@@H]4[C@@]4(CCC(=O)O4)[C@@]3(C)CC[C@@H]12 [DROSPIRENONE]
